Test results reported in US20210255193A1, “LYSINE REACTIVE PROBES AND USES THEREOF” (The Scripps Research Institute, priority 2017, published 2021).

Legend:
Assay in all cases: competitive isoTOP-ABPP
[1] = biological target: T1, TPD52L2 Tumor protein D54 (Homo sapiens, UniProt O43399); format: binding; set-up: key to isoTOP-ABPP reactivity ratio at lysine O43399_K90: R = MS1 peak area ratio, DMSO (heavy) / compound-treated (light); settings: 50 uM, in vitro; for isoTOP-ABPP reactivity ratio at lysine O43399_K90: 231 sol; for isoTOP-ABPP ratio (R) at liganded lysine O43399_K90: sol, 231
T1 construct: isoTOP-ABPP experiments performed in cell lysates (in vitro); endogenous in cells; host or cells: MDA-MB-231 soluble lysate
Experimental: (§1) In vitro covalent fragment treatment for isoTOP-ABPP. All compounds were made up as solutions in DMSO (100×) and were used at a final concentration of 50 μM for activated esters and 100 μM for guanidinylating agents. For each profiling sample, 0.5 ml of lysate was treated with 5 μl of the 100× compound stock solution or 5 μl of DMSO. Samples were treated with activated esters for
(§2) STP-alkyne labeling and click chemistry. For concentration-dependent reactivity measurements by isoTOP-ABPP, 0.5 ml proteome aliquots were treated at ambient temperature with 1 mM STP-alkyne 1 (5 μl of 100 mM stock in DMSO) and 0.1 mM STP alkyne 1 (5 μl of 10 mM stock in DMSO), respectively. For competitive isoTOP-ABPP, after in vitro fragment treatment (detailed above), the samples were labeled for 1 h at ambient temperature with 0.1 mM STP-alkyne 1 (5 μl of 10 mM stock in DMSO). Samples were conjugated by copper-mediated azide-alkyne cycloaddition (CuAAC) to either the light (1 mM STP-alkyne or fragment treated) or heavy (0.1 mM STP-alkyne or DMSO treated) TEV tags (10 μl of 5 mM stocks in DMSO, final concentration=100 μM) using tris(2-carboxyethyl)phosphine hydrochloride
(§3) R value calculation and processing. The ratios of light and heavy MS1 peaks for each unique peptide were quantified with a CIMAGE software using default parameters (3 MS1 acquisitions per peak and signal to noise threshold set to 2.5). For reactivity measurements by isoTOP-ABPP, the R value was calculated from the ratio of MS1 peak areas, comparing the 1 mM STP alkyne sample (light TEV tag) with the 0.1 mM STP alkyne sample (heavy TEV tag). For competitive isoTOP-ABPP, the R value was calculated from the ratio of MS1 peak areas, comparing the DMSO treated sample (heavy TEV tag) with the compound treated sample (light TEV tag). […] Ratios for unique peptide entries are calculated for each experiment; overlapping peptides with the same modified lysine (for example, different charge states, MudPIT chromatographic steps or tryptic termini) are grouped together and the median ratio is reported as the final ratio (R). The peptide ratios reported by CIMAGE were further filtered to ensure the removal or correction of low-quality ratios in each individual data set. The quality filters applied were the following: removal of half tryptic peptides; for ratios with high standard deviations from the median (90% of the median or above) the lowest ratio was taken instead of the median; removal of peptides with R=20 and only a single MS2 event triggered during the elution of the parent ion; manual annotation of all the peptides with ratios of 20, removing any peptides with low quality elution profiles that remained after the previous curation steps (only done for competitive isoTOP-ABPP).
(§4) Cross-data processing for fragment screening. For compound treated samples, biological replicates of the same condition were averaged, if the standard deviation was below 60% of the mean; otherwise, for lysines with at least one R value <4 for a particular compound, the lowest value of the ratio set was taken. For lysines, where all R values for a particular compound were ≥4, the average was reported. For peptides containing several possible modified lysines, the lysine with the highest number of quantification events was used for analysis and the remaining, redundant peptides were reported as alternative modification sites. Peptides included in the aggregate dataset (those used for further bioinformatics and statistical analyses) were required to have been quantified in 2 experiments for competitive isoTOP-ABPP. Lysines were categorized as liganded, if they had at least one ratio R≥4 (hit fragments). For liganded lysines with R=20 for all liganding events, lysines were required to have been quantified with R=20 in two separate experiments and were further required to have been quantified with R<20 in one additional experiment.

[2] = biological target: T2, ADK Adenosine kinase (Homo sapiens, UniProt P55263); format: binding; set-up: key to isoTOP-ABPP reactivity ratio at lysine P55263_K88: R = MS1 peak area ratio, DMSO (heavy) / compound-treated (light); settings: 50 uM, in vitro; for isoTOP-ABPP reactivity ratio at lysine P55263_K88: 231 sol; for isoTOP-ABPP ratio (R) at liganded lysine P55263_K88: sol, 231
T2 construct: isoTOP-ABPP experiments performed in cell lysates (in vitro); endogenous in cells; host or cells: soluble proteome of human cancer cell lines (MDA-MB-231, Ramos, Jurkat)
Experimental: as §1, §2, §3, §4

[3] = biological target: T3, ABCE1 ATP-binding cassette sub-family E member 1 (Homo sapiens, UniProt P61221); settings: 50 uM, in vitro; for isoTOP-ABPP reactivity ratio at lysine P61221_K191 / isoTOP-ABPP reactivity ratio at lysine P61221_K478: 231 sol; for isoTOP-ABPP ratio (R) at liganded lysine P61221_K191 / isoTOP-ABPP ratio (R) at liganded lysine P61221_K478: sol, 231
T3 construct: isoTOP-ABPP experiments performed in cell lysates (in vitro); endogenous in cells; host or cells: soluble proteome of human cancer cell lines (MDA-MB-231, Ramos, Jurkat)
Experimental: as §1, §2, §3, §4

[4] = biological target: T4, PFKP 6-phosphofructokinase type C (Homo sapiens, UniProt Q01813); format: binding; set-up: key to isoTOP-ABPP reactivity ratio at lysine Q01813_K688: R = MS1 peak area ratio, DMSO (heavy) / compound-treated (light); settings: 50 uM, in vitro; for isoTOP-ABPP reactivity ratio at lysine Q01813_K688: 231 sol; for isoTOP-ABPP ratio (R) at liganded lysine Q01813_K688: sol, 231
T4 construct: isoTOP-ABPP experiments performed in cell lysates (in vitro); endogenous in cells
T4 sequence (Q01813 1-784): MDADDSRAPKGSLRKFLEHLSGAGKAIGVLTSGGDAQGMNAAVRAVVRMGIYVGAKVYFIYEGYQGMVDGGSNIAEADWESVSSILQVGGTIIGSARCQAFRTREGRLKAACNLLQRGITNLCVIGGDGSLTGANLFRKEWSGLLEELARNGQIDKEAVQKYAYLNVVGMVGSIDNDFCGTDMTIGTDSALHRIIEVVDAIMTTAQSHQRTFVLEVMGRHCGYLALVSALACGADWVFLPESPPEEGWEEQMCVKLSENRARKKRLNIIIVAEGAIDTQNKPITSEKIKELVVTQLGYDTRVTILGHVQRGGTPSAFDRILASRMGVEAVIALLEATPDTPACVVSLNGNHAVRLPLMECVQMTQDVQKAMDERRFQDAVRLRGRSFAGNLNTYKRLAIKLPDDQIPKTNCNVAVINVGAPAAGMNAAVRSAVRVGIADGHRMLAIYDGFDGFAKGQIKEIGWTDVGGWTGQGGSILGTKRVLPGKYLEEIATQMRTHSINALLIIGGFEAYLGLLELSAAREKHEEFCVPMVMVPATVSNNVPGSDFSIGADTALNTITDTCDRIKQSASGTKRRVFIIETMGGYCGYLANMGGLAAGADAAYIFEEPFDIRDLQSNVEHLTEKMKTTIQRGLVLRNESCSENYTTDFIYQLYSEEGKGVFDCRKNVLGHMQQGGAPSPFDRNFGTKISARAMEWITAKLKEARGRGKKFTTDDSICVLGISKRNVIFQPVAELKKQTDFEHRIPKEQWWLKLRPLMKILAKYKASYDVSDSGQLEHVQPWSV
Experimental: as §1, §2, §3, §4

T2 sequence (P55263 whole entry): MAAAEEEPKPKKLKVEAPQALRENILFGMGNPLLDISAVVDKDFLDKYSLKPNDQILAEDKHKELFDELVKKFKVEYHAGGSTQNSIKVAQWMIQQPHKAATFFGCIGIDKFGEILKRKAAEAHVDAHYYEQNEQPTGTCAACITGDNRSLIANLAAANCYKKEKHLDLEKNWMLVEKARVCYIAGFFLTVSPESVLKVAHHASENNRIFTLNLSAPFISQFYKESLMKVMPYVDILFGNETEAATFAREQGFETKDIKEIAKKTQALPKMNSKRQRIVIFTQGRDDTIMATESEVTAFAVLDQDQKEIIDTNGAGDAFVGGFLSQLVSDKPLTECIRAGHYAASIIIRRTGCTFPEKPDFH
T1 sequence (O43399 whole entry): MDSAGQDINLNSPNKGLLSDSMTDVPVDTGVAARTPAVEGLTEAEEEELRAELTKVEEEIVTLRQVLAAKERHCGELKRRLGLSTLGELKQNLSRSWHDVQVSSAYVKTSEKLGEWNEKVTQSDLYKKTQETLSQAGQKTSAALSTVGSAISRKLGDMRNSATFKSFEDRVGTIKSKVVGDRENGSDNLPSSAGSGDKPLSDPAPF

| Compound | isoTOP-ABPP reactivity ratio at lysine O43399_K90 [1] | isoTOP-ABPP reactivity ratio at lysine P55263_K88 [2] | isoTOP-ABPP reactivity ratio at lysine P61221_K191 [3] | isoTOP-ABPP reactivity ratio at lysine P61221_K478 [3] | isoTOP-ABPP reactivity ratio at lysine Q01813_K688 [4] | isoTOP-ABPP ratio (R) at liganded lysine O43399_K90 [1] | isoTOP-ABPP ratio (R) at liganded lysine P55263_K88 [2] | isoTOP-ABPP ratio (R) at liganded lysine P61221_K191 [3] | isoTOP-ABPP ratio (R) at liganded lysine P61221_K478 [3] | isoTOP-ABPP ratio (R) at liganded lysine Q01813_K688 [4] |
| --- | --- | --- | --- | --- | --- | --- | --- | --- | --- | --- |
| O=C(Oc1ccc([N+](=O)[O-])cc1[N+](=O)[O-])c1cc(C(F)(F)F)cc(C(F)(F)F)c1 [fragment 31, 2,4-Dinitrophenyl 3,5-bis(trifluoromethyl)benzoate] | 3.3 | 0.7 | 1.4 | 1.1 | 2.3 |  |  |  |  |  |
| Cn1cc(CC(=O)Oc2ccc([N+](=O)[O-])cc2[N+](=O)[O-])c2ccccc21 [fragment 32, 2,4-Dinitrophenyl 2-(1-methyl-1H-indol-3-yl)acetate] | 2.7 | 1.4 | 1.3 | 1.2 | 12.6 |  |  |  |  |  |
| COc1cc(CCC(=O)Oc2ccc([N+](=O)[O-])cc2[N+](=O)[O-])cc(OC)c1OC [fragment 33, 2,4-Dinitrophenyl 3-(3,4,5-trimethoxyphenyl)propanoate] | 1.3 | 0.9 | 1.1 | 1.2 | 20.0 |  |  |  |  |  |
| O=C(Oc1ccc([N+](=O)[O-])cc1[N+](=O)[O-])C1CCN(C(=O)OCc2ccccc2)CC1 [fragment 34, 1-Benzyl 4-(2,4-dinitrophenyl) piperidine-1,4-dicarboxylate] |  |  |  |  |  | 1.8 | 20.0 | 1.0 | 1.2 | 1.9 |
| O=C(Oc1ccc([N+](=O)[O-])cc1[N+](=O)[O-])c1ccc2ccccc2n1 [fragment 35, 2,4-Dinitrophenyl quinoline-2-carboxylate] |  |  |  |  |  | 1.3 | 0.6 | 1.1 | 1.1 | 3.3 |
| O=C(CCc1coc2cc(F)ccc2c1=O)Oc1ccc([N+](=O)[O-])cc1[N+](=O)[O-] [fragment 36, 2,4-Dinitrophenyl 3-(7-fluoro-4-oxo-4H-chromen-3-yl)propanoate] |  |  |  |  |  | 1.3 | 20.0 | 1.0 | 1.1 | 20.0 |
| O=C(Oc1ccc([N+](=O)[O-])cc1[N+](=O)[O-])c1ccc(-c2ccccc2)cc1 [fragment 37, 2,4-Dinitrophenyl [1,1′-biphenyl]-4-carboxylate] |  |  |  |  |  | 1.6 | 0.8 | 0.9 | 1.0 | 1.0 |
| O=C(CC12CC3CC(CC(C3)C1)C2)Oc1ccc([N+](=O)[O-])cc1[N+](=O)[O-] [fragment 38, 2,4-Dinitrophenyl 2-(adamantan-1-yl)acetate] |  |  |  |  |  | 2.9 | 0.9 |  | 0.9 | 4.1 |
| O=C(Oc1ccc([N+](=O)[O-])cc1[N+](=O)[O-])c1ccc(Oc2ccccc2)cc1 [fragment 39, 2,4-Dinitrophenyl 4-phenoxybenzoate] |  |  |  |  |  | 1.3 | 0.9 | 0.8 | 1.0 | 1.0 |
| O=C(Oc1ccc([N+](=O)[O-])cc1[N+](=O)[O-])c1ccccc1Nc1cccc(C(F)(F)F)c1 [fragment 40, 2,4-Dinitrophenyl 2-((3-(trifluoromethyl)phenyl)amino)benzoate] |  |  |  |  |  | 1.2 | 0.9 | 0.9 | 1.0 | 1.0 |
| CC(C)(C)OC(=O)NCCCC(=O)Oc1ccc([N+](=O)[O-])cc1[N+](=O)[O-] [fragment 41, 2,4-Dinitrophenyl 4-((tert-butoxycarbonyl)amino)butanoate] |  |  |  |  |  | 1.3 | 1.5 | 1.2 | 1.3 | 4.9 |
